According to PubChem BioAssay (NCI):
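These data come from cells grown in 96-well plates and exposed to compound for 48 hours at five concentrations. GI50 = concentration required for 50% inhibition of growth. Definition used: TGI = concentration required for complete inhibition of growth.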

Legend:
Assay in all cases: NCI-60 cell line screen, 48 h
A498 renal = system: A498 renal
HCC-2998 colon = system: HCC-2998 colon
MDA-MB-231 breast = system: MDA-MB-231 breast
NCI-H522 lung = system: NCI-H522 lung
NCI/ADR-RES ovarian = system: NCI/ADR-RES ovarian
SF-268 CNS = system: SF-268 CNS
SK-MEL-2 melanoma = system: SK-MEL-2 melanoma
SNB-19 CNS = system: SNB-19 CNS
SW-620 colon = system: SW-620 colon
TK-10 renal = system: TK-10 renal

SMILES	GI50 (A498 renal) [µM]	TGI (A498 renal) [µM]	GI50 (HCC-2998 colon) [µM]	GI50 (MDA-MB-231 breast) [µM]	GI50 (NCI-H522 lung) [µM]	TGI (NCI-H522 lung) [µM]	GI50 (NCI/ADR-RES ovarian) [µM]	TGI (NCI/ADR-RES ovarian) [µM]	GI50 (SF-268 CNS) [µM]	TGI (SF-268 CNS) [µM]	GI50 (SK-MEL-2 melanoma) [µM]	TGI (SK-MEL-2 melanoma) [µM]	GI50 (SNB-19 CNS) [µM]	TGI (SNB-19 CNS) [µM]	GI50 (SW-620 colon) [µM]	TGI (SW-620 colon) [µM]	GI50 (TK-10 renal) [µM]	TGI (TK-10 renal) [µM]	TGI (HCC-2998 colon) [µM]	TGI (MDA-MB-231 breast) [µM]
COc1cc(C2C3=C(COC3=O)Nc3c2ccc2c3CCCC2)cc2c1OCO2 (configuration not stated)	0.0265	0.175	0.052	0.0779	0.0239	1.46	0.0391	19.1	0.107	19.6	0.068	27.4	0.0531	> 77.4	0.0399	> 100	14.9	> 94.3	–	–
CC1C[C@]2(C[C@@H](C)C(=O)O2)O[C@@H]2CC3(C)[C@@H]4CCC5C(C)(C)OC(=O)C[C@H]6OO[C@]4(CC[C@]3(C)C12)CC56O (some centres not stated)	–	–	–	–	–	> 100	–	–	–	–	–	> 100	–	> 100	–	> 100	–	> 100	> 100	–
CCCCN[C@H]1C2C3CC4C5CC(C42)C1(C)C53 (some centres not stated)	–	> 100	–	–	–	> 100	–	–	–	> 100	–	> 100	–	> 100	–	> 100	–	> 100	> 100	–
COc1ccc(-c2cc(-c3cc(Cl)cc(Br)c3O)[nH]c(=O)n2)cc1	–	31.4	–	–	–	30	–	–	–	50	–	–	–	57.2	–	46.9	–	47.3	45.5	–
COc1c(-c2ccc(O)c(O)c2)oc2c(O)c(O)cc(O)c2c1=O	–	> 100	–	–	–	> 100	–	> 100	–	–	–	> 100	–	> 100	–	43.9	–	> 100	> 100	> 100
COC(=O)N/N=C(/CCC(=O)Nc1ccc(C)c(C)c1)CC(=O)C(C)(C)C	–	–	–	–	–	> 100	–	–	–	> 100	–	> 100	–	> 100	–	> 100	–	> 100	> 100	–
CCOC(=O)C1=C(C)N(NC(N)=O)C(C)(O)C12CCOC2=O (configuration not stated)	–	> 100	–	–	–	> 100	–	–	–	> 100	–	> 100	–	> 100	–	> 100	–	–	> 100	–
Cc1ccn2c(CCc3nnc4cc(C)ccn34)nnc2c1	–	> 100	–	–	–	> 100	–	> 100	–	> 100	–	> 100	–	> 100	–	> 100	–	> 100	–	> 100
CCCCCCCCCCCCCCCC(=O)OCC1OC(OC)C2NP(=O)(N(CCCl)CCCl)OC1C2O (configuration not stated)	–	34.7	–	–	–	3.42	–	–	–	14.8	–	24.3	–	65.6	–	17.4	–	31.7	9.46	–
OCCNCCCOc1ccc2ncnc(Nc3ccc(Oc4cccc(C(F)(F)F)c4)c(Cl)c3)c2c1	1.72	5.29	1.64	1.72	–	–	2.65	9.3	–	–	1.7	3.38	–	–	1.76	3.38	1.13	2.54	3.1	3.2
CCOC(=N)CC(=O)Nc1cccc(Cl)c1	–	> 100	–	–	–	> 100	–	–	–	> 100	–	> 100	–	> 100	–	> 100	–	> 100	> 100	–
CC1(C)C(=O)/C=C\C(=O)C(C)(C)C(=O)/C=C\C(=O)C(C)(C)C(=O)/C=C\C(=O)C(C)(C)C(=O)/C=C\C1=O	–	> 100	–	–	–	20.2	–	–	–	> 69.3	–	47.5	–	> 71.1	–	28.1	–	> 68.6	–	> 100
CC(=O)[CH-]C(=O)c1ccccc1.CC(=O)[CH-]C(=O)c1ccccc1.Cl.[O-]c1ccccn1.[O-]c1ccccn1.[Ti+4]	> 100	> 100	> 100	–	> 100	> 100	–	–	> 100	> 100	> 100	> 100	> 100	> 100	> 100	> 100	–	–	> 100	–
NC(N)=Nc1nc2ccc([N+](=O)[O-])cc2[nH]1	–	> 100	–	–	–	> 100	–	> 100	–	> 100	–	> 100	–	> 100	–	> 100	–	> 100	–	> 100
COc1cc2c(cc1OC)NC(=O)NC(Cc1ccc3c(c1)OCO3)CC2 (configuration not stated)	–	–	–	–	–	76.2	–	–	–	> 100	–	> 100	–	> 100	–	> 100	–	> 100	> 100	–
CC1=C(Cl)C=CP(=O)(OC(C)C)C1 (configuration not stated)	–	> 100	–	–	–	87.7	–	–	–	> 100	–	> 100	–	–	–	> 100	–	> 100	> 100	–
O=C(CC1(O)C(=O)Nc2ccccc21)c1ccc(O)cc1 (configuration not stated)	–	> 100	–	–	–	–	–	–	–	> 100	–	> 100	–	> 100	–	> 100	–	> 100	> 100	–
Clc1ccc2nc(-c3ccccc3)nc(Cl)c2c1	–	> 100	–	–	–	–	–	–	–	> 100	–	> 100	–	> 100	–	> 100	–	63.9	> 100	–
Cc1ccc(C2=C(c3ccccc3)C(c3ccccc3)Oc3ccc(C)cc32)cc1 (configuration not stated)	1.56	5.32	1.64	13	2.28	5.63	2.18	5.35	13.2	38.7	1.9	3.98	–	–	3.79	13.2	13.7	32.4	3.1	30.5
CC1=C(C(=O)Nc2ccc([N+](=O)[O-])cc2)C(c2ccc3c(c2)OCO3)C(C(=O)Nc2ccc([N+](=O)[O-])cc2)=C(C)N1	–	69.1	–	–	–	> 100	–	–	–	> 100	–	35	–	> 100	–	> 100	–	–	57.4	–
O=[n+]1c2ccccc2n([O-])c2cc(Cl)ccc21	1.14	14.7	6.81	4.21	1.47	3.11	4.31	40.3	2.99	10.7	–	–	9.46	39.5	3.73	18.7	4.96	18	20.5	22.2
Cc1ccc(C2=Nc3c(N)ncnc3NC(c3ccc4c(c3)OCO4)C2)cc1 (configuration not stated)	6.33	35.2	6.3	4.37	3.67	23.2	3.52	22.9	4.06	16.3	–	–	38.2	> 100	3.56	16.8	4.47	21.1	67.1	19.5

SMILES	GI50 (A498 renal) [µM]	TGI (A498 renal) [µM]	GI50 (HCC-2998 colon) [µM]	GI50 (MDA-MB-231 breast) [µM]	GI50 (NCI-H522 lung) [µM]	TGI (NCI-H522 lung) [µM]	GI50 (NCI/ADR-RES ovarian) [µM]	TGI (NCI/ADR-RES ovarian) [µM]	GI50 (SF-268 CNS) [µM]	TGI (SF-268 CNS) [µM]	GI50 (SK-MEL-2 melanoma) [µM]	TGI (SK-MEL-2 melanoma) [µM]	GI50 (SNB-19 CNS) [µM]	TGI (SNB-19 CNS) [µM]	GI50 (SW-620 colon) [µM]	TGI (SW-620 colon) [µM]	GI50 (TK-10 renal) [µM]	TGI (TK-10 renal) [µM]	TGI (HCC-2998 colon) [µM]	TGI (MDA-MB-231 breast) [µM]
CCOC(=O)[C@H]1Nc2ccc([N+](=O)[O-])cc2C2c3ccccc3CC21 (some centres not stated)	–	–	–	–	–	29.3	–	–	–	38.5	–	72.3	–	> 100	–	41.6	–	77.3	44.2	–
Oc1ccc(CCNCc2cc3c(cc2Br)OCO3)cc1	–	> 100	–	–	–	> 100	–	> 100	–	> 100	–	74.6	–	> 100	–	> 100	–	> 100	–	> 100
O=c1c(NO)c([N+](=O)[O-])cnn1-c1ccccc1	–	50	–	–	–	4.86	–	–	–	34.2	–	31.4	–	26.1	–	3.73	–	33.2	9.86	–
NCCOc1ccccc1/C=C1\c2ccccc2-c2ccc([N+](=O)[O-])cc21	1.44	2.76	1.51	1.58	1.49	3.05	1.77	3.54	1.58	3.15	1.8	3.34	–	–	1.09	2.43	–	–	3.09	2.99
Cc1ccc(-c2cc(=O)c3cc(C)c(C)c(C(=O)O)c3o2)cc1N	–	–	–	–	–	> 100	–	–	–	> 100	–	> 100	–	> 100	–	> 100	–	> 100	–	–
C=CC1(NS(=O)(=O)c2ccc(C)cc2)CCC(C(C)(C)C)CC1 (configuration not stated)	–	> 100	–	–	–	> 100	–	–	–	> 100	–	> 100	–	> 100	–	> 100	–	> 100	> 100	–
CC1(C)C=N[N+]2(C)C3C=CC(CC3)C12 (configuration not stated)	–	> 100	–	–	–	> 100	–	–	–	> 100	–	> 100	–	> 100	–	–	–	> 100	> 100	–
O=[N+]([O-])c1ccccc1C=NC12CC3CC(CC(C3)C1)C2	–	> 100	–	–	–	> 100	–	–	–	> 100	–	> 100	–	> 100	–	> 100	–	> 100	> 100	–
CCCCc1n(Cc2ccc3ccccc3c2)cc[n+]1Cc1ccc2ccccc2c1	–	–	–	1.31	–	–	15.8	39.8	–	–	–	–	–	–	1.2	2.77	1.37	2.76	–	2.77
C/C=C/[C@H]1O[C@@H]2C(=C[C@H]1O)C(=O)O[C@H]2C	–	–	27.9	17.3	5.02	> 42.9	26	> 57	30.1	> 95	37.8	> 100	35.6	> 54.6	3.19	14.2	14.9	33	55.9	34.2
CN[C@@H](C)[C@H](N)c1ccccc1	–	> 100	–	–	–	> 100	–	–	–	–	–	–	–	–	–	> 100	–	> 100	> 100	–
CSc1nc(NC2OC(COC(C)=O)C(OC(C)=O)C(OC(C)=O)C2OC(C)=O)c(-c2csc(N)n2)c(=O)n1C (configuration not stated)	–	> 100	–	–	–	> 100	–	–	–	> 100	–	> 100	–	> 100	–	> 100	–	> 100	–	–
CNS(=O)(=O)NN(C)S(=O)(=O)c1ccc2ccccc2c1	–	> 100	–	–	–	> 100	–	–	–	–	–	> 100	–	–	–	> 100	–	> 100	> 100	–
Cc1ccc(NC(=S)SCCC(=O)O)cc1	–	> 100	–	–	–	> 100	–	–	–	> 100	–	> 100	–	> 100	–	> 100	–	> 100	> 100	–
COc1ccc(/C(Cl)=C(\c2ccc(OCCN(C)C)cc2)c2ccc(OC(=O)C(C)(C)C)cc2)cc1	–	–	–	–	–	28.6	–	–	–	28.2	–	29.4	–	29.5	–	28.6	–	32.3	29.2	–
Cc1cc(N2CCCC2)nc(NCc2cc(Nc3ccnc4cc(Cl)ccc34)ccc2F)n1	1.04	2.54	1.13	–	1.41	3.09	1.39	2.99	1.36	3.14	1.74	3.31	–	–	–	–	2.14	3.72	2.45	–
C=C1C2CC(OC(C)=O)C3(C)C(c4ccoc4)OC(=O)[C@@H](O)[C@]13OC1C[C@H](OC(C)=O)C(C)(C)[C@H](CC(=O)OC)[C@]12C (some centres not stated)	–	> 100	–	–	–	–	–	–	–	–	–	> 100	–	> 100	–	> 100	–	> 100	> 100	–
O=[N+]([O-])c1cc(Cl)ccc1OCc1ccccc1	–	> 100	–	–	–	–	–	–	–	> 100	–	> 100	–	–	–	> 100	–	> 100	> 100	–
O=S(=O)([O-])[O-].[Cl-].[NH2-].[NH2-].[NH2-].[NH2-].[Ru+3].c1ccncc1	–	> 100	–	–	–	> 100	–	–	–	> 100	–	> 100	–	–	–	> 100	–	> 100	> 100	–
CC(CNCCCNCCNCCCNCO)[N+](=O)[O-] (configuration not stated)	–	32.3	–	–	–	–	–	–	–	29.6	–	29.4	–	> 100	–	12.2	–	8.6	31	–
Oc1cccc(/C=N/Nc2nnc(N/N=C/c3cccc(O)c3)c3ccccc23)c1	–	–	–	–	–	53.1	–	60.1	–	> 100	–	83.6	–	> 100	–	56.8	–	50.9	–	35.8
